Reference: patent US8148415B2, “Sulfamic acid ester compounds useful in the inhibition of steroid sulphatase activity and aromatase activity” (Sterix Limited, priority 2004, dated 2012)
Where two headings read alike, the source gives them in different places.

Experiments:
Aromatase = target: T1, Aromatase (Homo sapiens, UniProt P11511); experiment: Aromatase activity in intact JEG3 choriocarcinoma cells (Protocol 6); type: cell-based
T1 construct: Aromatase activity is measured in JEG3 choriocarcinoma cells, obtained from the ATCC; host or cells: JEG3 choriocarcinoma cells
T1 sequence (P11511 1-503): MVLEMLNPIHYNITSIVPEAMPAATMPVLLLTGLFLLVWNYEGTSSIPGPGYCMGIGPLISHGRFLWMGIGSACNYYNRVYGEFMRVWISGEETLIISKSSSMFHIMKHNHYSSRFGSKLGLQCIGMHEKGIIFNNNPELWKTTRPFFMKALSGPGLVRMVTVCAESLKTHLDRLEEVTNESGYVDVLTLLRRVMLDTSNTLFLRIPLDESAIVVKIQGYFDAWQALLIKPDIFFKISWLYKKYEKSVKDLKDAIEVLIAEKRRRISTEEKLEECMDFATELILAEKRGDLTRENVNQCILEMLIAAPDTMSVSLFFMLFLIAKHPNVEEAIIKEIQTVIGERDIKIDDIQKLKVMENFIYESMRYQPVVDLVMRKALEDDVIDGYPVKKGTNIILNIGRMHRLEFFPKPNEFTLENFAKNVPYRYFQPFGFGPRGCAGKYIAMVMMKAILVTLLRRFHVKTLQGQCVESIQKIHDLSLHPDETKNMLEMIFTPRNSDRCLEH

rat liver E1-STS = target: T2, rat liver E1-STS (Rattus norvegicus, UniProt P15589); conditions: administered orally or subcutaneously; cited from earlier work
T2 construct: from tissue; host or cells: rat liver
T2 sequence (P15589 20-577): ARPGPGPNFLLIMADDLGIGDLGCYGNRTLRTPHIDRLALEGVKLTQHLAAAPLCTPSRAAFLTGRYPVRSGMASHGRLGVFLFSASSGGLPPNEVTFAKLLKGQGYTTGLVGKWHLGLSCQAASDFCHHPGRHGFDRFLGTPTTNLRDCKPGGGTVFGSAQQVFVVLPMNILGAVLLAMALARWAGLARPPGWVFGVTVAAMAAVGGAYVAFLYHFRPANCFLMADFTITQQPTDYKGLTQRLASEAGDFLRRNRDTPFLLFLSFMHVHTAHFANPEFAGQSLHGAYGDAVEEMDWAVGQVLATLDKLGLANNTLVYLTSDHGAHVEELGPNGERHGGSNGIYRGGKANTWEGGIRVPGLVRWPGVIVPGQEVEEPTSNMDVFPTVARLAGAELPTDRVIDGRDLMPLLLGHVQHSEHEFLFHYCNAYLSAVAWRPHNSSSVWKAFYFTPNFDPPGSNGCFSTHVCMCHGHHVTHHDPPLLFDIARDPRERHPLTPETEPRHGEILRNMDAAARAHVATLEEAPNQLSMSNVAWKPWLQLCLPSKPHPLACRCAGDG

E1-STS = target: T3, E1-STS (Homo sapiens, UniProt P08842); conditions: intact MCF-7 cells, 0.1 nM; cited from earlier work
T3 construct: endogenous in cells; host or cells: MCF-7 cells
T3 sequence (P08842 22-583): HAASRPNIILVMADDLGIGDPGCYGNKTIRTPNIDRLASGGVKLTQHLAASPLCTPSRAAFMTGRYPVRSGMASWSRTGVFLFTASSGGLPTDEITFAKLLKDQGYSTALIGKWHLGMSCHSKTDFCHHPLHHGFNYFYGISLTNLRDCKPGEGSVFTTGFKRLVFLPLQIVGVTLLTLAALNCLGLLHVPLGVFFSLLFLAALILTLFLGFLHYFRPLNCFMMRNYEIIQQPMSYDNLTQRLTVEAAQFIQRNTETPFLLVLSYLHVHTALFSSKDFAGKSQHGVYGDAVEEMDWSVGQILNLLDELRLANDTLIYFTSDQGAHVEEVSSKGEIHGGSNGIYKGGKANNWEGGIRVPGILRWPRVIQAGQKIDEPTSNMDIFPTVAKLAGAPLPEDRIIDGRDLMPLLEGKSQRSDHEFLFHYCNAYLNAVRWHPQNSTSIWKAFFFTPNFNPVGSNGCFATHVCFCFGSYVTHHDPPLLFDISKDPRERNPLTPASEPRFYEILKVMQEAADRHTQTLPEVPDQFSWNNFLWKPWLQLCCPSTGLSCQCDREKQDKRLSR

rats = conditions: rat, in vivo, cited from earlier work
rat liver DHEA-STS = target: T4, rat liver DHEA-STS (Rattus norvegicus, UniProt P15589); conditions: administered orally or subcutaneously; cited from earlier work
T4 construct: rat liver E1-STS (99%) and DHEA-STS (99%) activities; from tissue; host or cells: rat liver
T4 sequence (P15589 20-577): T2 sequence (P15589 20-577)

[1] = cited from earlier work
Steroid sulphatase [2] = target: T5, Steroid sulphatase (Homo sapiens, UniProt P08842); experiment: Inhibition of steroid sulphatase activity in intact JEG3 cells (Protocol 1); type: cell-based; set-up: host or cells: JEG3 choriocarcinoma cells; conditions: read-out: JEG3 cells IC50 Sulfatase
T5 sequence (P08842 22-583): T3 sequence (P08842 22-583)
Method: Assay for Determining STS Activity Using Cancer Cells
Inhibition of Steroid Sulphatase Activity in JEG3 Cells
Steroid sulphatase activity is measured in vitro using intact JEG3 choriocarcinoma cells. This cell line may be used to study the control of human breast cancer cell growth.
Cells are maintained in Minimal Essential Medium (MEM) (Flow Laboratories, Irvine, Scotland) containing 20 mM HEPES, 5% foetal bovine serum, 2 mM glutamine, non-essential amino acids and 0.075% sodium bicarbonate. Up to 30 replicate 25 cm2 tissue culture flasks are seeded with approximately 1×10^5 cells/flask using the above medium. Cells are grown to 80% confluency and the medium is changed every third day.
Intact monolayers of JEG3 cells in triplicate 25 cm^2 tissue culture flasks are washed with Earle's Balanced Salt Solution (EBSS from ICN Flow, High Wycombe, U.K.) and incubated for 3-4 hours at 37° C. with 5 pmol (7×10^5 dpm) [6,7-3H]oestrone-3-sulphate (specific activity 60 Ci/mmol from New England Nuclear, Boston, Mass., U.S.A.) in serum-free MEM (2.5 ml) together with oestrone-3-sulphamate (11 concentrations: 0; 1 fM; 0.01 pM; 0.1 pM; 1 pM; 0.01 nM; 0.1 nM; 1 nM; 0.01 mM; 0.1 mM; 1 mM). […] A portion (2 ml) of the organic phase is removed, evaporated and the 3H and 14C content of the residue determined by scintillation spectrometry. […]

Steroid sulphatase [3] = target: T5, Steroid sulphatase; conditions: cited from earlier work

N#Cc1ccc(N(Cc2ccc(Br)c(OS(N)(=O)=O)c2)n2cnnc2)cc1 [STX1217, 4-[(4-Bromo-3-O-sulfamoylbenzyl)(4cyanophenyl)amino]-4H-[1,2,4]triazole]
IC50 (Aromatase): 3.9 nM

CC12CCC3c4ccc(OS(N)(=O)=O)cc4CCC3C1CCC2=O (centres unmarked) [EMATE, oestrone-3-sulphamate]
inhibition of rat liver E1-STS activity (rat liver E1-STS): 99%
inhibition of E1-STS activity (E1-STS): more than 99%
oral uterotrophic activity relative to estradiol (rats; po): 100 times
inhibition of rat liver DHEA-STS activity (rat liver DHEA-STS): 99%

C[C@]12CC[C@@H]3c4ccc(OS(=O)(=O)O)cc4CC[C@H]3[C@@H]1CCC2=O [E1S, oestrone sulphate]
half-life in blood [1]: 10 to 12 h

N#Cc1ccc(N(Cc2cccc(OS(N)(=O)=O)c2)n2cnnc2)cc1 [STX334, 4-[(3-O-Sulfamoylbenzyl)(4-cyanophenyl)amino]-4H-[1,2,4]triazole]
IC50 (Steroid sulphatase [2]): 5130 nM
IC50 (Aromatase; intact JEG3 cells): 39 nM

COc1ccc(C(c2ccc(OC)c(O)c2)n2cncn2)cc1O
melting point: 217.5 to 219 °C

COc1cc2c(cc1OS(N)(=O)=O)CC[C@@H]1[C@@H]2CC[C@]2(C)C(=O)CC[C@@H]12 [2-methoxyoestrone-3-O-sulphamate]
oestrogenicity (rats): devoid of oestrogenicity
potency as steroid sulphatase inhibitor relative to EMATE (Steroid sulphatase [3]): equipotent with EMATE
